Measured values reported in ChEMBL document CHEMBL1201862, “PubChem BioAssay data set” (2004).
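How tested: cells in 96-well plates exposed to compound for 48 hours at five concentrations. Abbreviation: GI50, concentration required for 50% inhibition of growth.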 Calls of active or inactive are those of the source. No stated cut-off is given here; in the data, active = GI50 up to about 1.1 µM and inactive = higher.

Legend:
Test in all cases: NCI anticancer screen, dose series, 48 h
[1] = tested on: SF-539
[2] = tested on: SW-620
[3] = tested on: OVCAR-4
[4] = tested on: SK-MEL-2
[5] = tested on: HOP-62
[6] = tested on: RXF 393
[7] = tested on: HCT-15
[8] = tested on: 786-0
[9] = tested on: NCI-H522
[10] = tested on: COLO 205
[11] = tested on: Malme-3M
[12] = tested on: OVCAR-5
[13] = tested on: A498
[14] = tested on: SK-MEL-5
[15] = tested on: HCT-116
[16] = tested on: HT-29
[17] = tested on: RPMI-8226

Compound | GI50 [1] | GI50 [2] | GI50 [3] | GI50 [4] | GI50 [5] | GI50 [6] | GI50 [7] [µM] | GI50 [8] | GI50 [9] | GI50 [10] | GI50 [11] | GI50 [12] | GI50 [13] | GI50 [14] | GI50 [15] | GI50 [16] | GI50 [17]
Cc1c[nH]c2c1C13CC1CN(C(=O)c1cc4cc(NC(=O)c5cc6ccccc6o5)ccc4[nH]1)C3=CC2=O (configuration not stated) | < 0.001 µM (active) | < 0.001 µM (active) | < 0.001 µM (active) | < 0.001 µM (active) | < 0.001 µM (active) | < 0.001 µM (active) | < 0.001 | < 0.001 µM (active) | < 0.001 µM (active) | < 0.001 µM (active) | < 0.001 µM (active) | < 0.001 µM (active) | < 0.001 µM (active) | < 0.001 µM (active) | < 0.001 µM (active) | < 0.001 µM (active) | 
Oc1ccc2occ3c2c1CCC3 | > 100 µM (inactive) | > 100 µM (inactive) | > 100 µM (inactive) |  | > 100 µM (inactive) | 75.2 µM (inactive) | > 100 | > 100 µM (inactive) |  | > 100 µM (inactive) |  |  | > 100 µM (inactive) | > 100 µM (inactive) | > 100 µM (inactive) | > 100 µM (inactive) | 98.4 µM (inactive)
COc1ccc(/C(=C/n2ccnc2)C(=O)c2ccc(OC)c(OC)c2)cc1 | > 100 µM (inactive) | > 100 µM (inactive) | > 100 µM (inactive) | > 100 µM (inactive) | > 100 µM (inactive) |  | > 100 | > 100 µM (inactive) | > 100 µM (inactive) | > 100 µM (inactive) | > 100 µM (inactive) | > 100 µM (inactive) | > 100 µM (inactive) | > 100 µM (inactive) | > 100 µM (inactive) |  | > 100 µM (inactive)
C=CCN1/C(=C2\SC(=S)N(c3ccc(C)cc3)C2=O)Sc2c1ncn(C)c2=O | 90.8 µM (inactive) | > 100 µM (inactive) | 94.2 µM (inactive) | > 100 µM (inactive) | 69.2 µM (inactive) |  | > 100 | 71.1 µM (inactive) | 46.7 µM (inactive) | 96.8 µM (inactive) |  | > 100 µM (inactive) | 51.1 µM (inactive) | 38.4 µM (inactive) | > 100 µM (inactive) | > 100 µM (inactive) | > 100 µM (inactive)
COC(=O)C(C(=O)C(=O)Nc1ccccc1C(C)=O)c1nc2ccc(Cl)cc2nc1O (configuration not stated) | > 100 µM (inactive) | > 100 µM (inactive) | > 100 µM (inactive) | > 100 µM (inactive) | > 100 µM (inactive) | 89.7 µM (inactive) | > 100 | > 100 µM (inactive) |  | > 100 µM (inactive) | > 100 µM (inactive) | > 100 µM (inactive) | > 100 µM (inactive) | > 100 µM (inactive) | > 100 µM (inactive) | > 100 µM (inactive) | > 100 µM (inactive)
C/C(=N/N(C=O)C[n+]1ccccc1)C(CN(CC(C)C)CC(C)C)C(=O)Nc1ccc(C)cc1C (configuration not stated) | > 100 µM (inactive) | > 100 µM (inactive) | > 100 µM (inactive) | > 100 µM (inactive) | > 100 µM (inactive) | 42.9 µM (inactive) |  | > 100 µM (inactive) | > 100 µM (inactive) | > 100 µM (inactive) | > 100 µM (inactive) | 63.1 µM (inactive) | 33.1 µM (inactive) | 57.1 µM (inactive) | > 100 µM (inactive) | > 100 µM (inactive) | > 100 µM (inactive)
Cc1c(Cl)cccc1NC(=O)C(=O)c1c(O)c2ccc(O)cc2oc1=O | > 100 µM (inactive) | > 100 µM (inactive) | > 100 µM (inactive) | > 100 µM (inactive) | > 100 µM (inactive) | > 100 µM (inactive) | > 100 | > 100 µM (inactive) | > 100 µM (inactive) | > 100 µM (inactive) | > 100 µM (inactive) | > 100 µM (inactive) | > 100 µM (inactive) | > 100 µM (inactive) | > 100 µM (inactive) | > 100 µM (inactive) | 
Oc1nc(-c2ccccc2)cc(-c2ccccc2O)n1 | > 100 µM (inactive) | > 100 µM (inactive) | > 100 µM (inactive) |  | 30.5 µM (inactive) | 86.5 µM (inactive) | 83.2 | > 100 µM (inactive) | 69.3 µM (inactive) | > 100 µM (inactive) | > 100 µM (inactive) | 62.5 µM (inactive) | > 100 µM (inactive) |  | 83.4 µM (inactive) | 56.6 µM (inactive) | 83.9 µM (inactive)
O=c1[nH]c2ccccc2cc1C(Cl)=C(Cl)Cl | > 100 µM (inactive) | > 100 µM (inactive) | > 100 µM (inactive) | > 100 µM (inactive) | > 100 µM (inactive) | > 100 µM (inactive) |  | > 100 µM (inactive) | > 100 µM (inactive) | > 100 µM (inactive) | > 100 µM (inactive) | > 100 µM (inactive) | > 100 µM (inactive) |  | > 100 µM (inactive) | > 100 µM (inactive) | > 100 µM (inactive)
